Assay results taken from US9675571B2, “Inhibitors of indoleamine 2,3-dioxygenase (IDO)” (BRISTOL-MYERS SQUIBB COMPANY, priority 2013, dated 2017).

molecular target: Human IDO1 (Homo sapiens (Human), UniProt P14902); test: IDO Kynurenine Assay with Human IDO1/HEK293 Cells; assay type: cell-based; conditions: 20 hours incubation, kynurenine detected with Ehrlich reagent, absorbance at 490 nm, read-out: HEK Human IDO-1 IC50
Protocol: Human IDO1/HEK293 cells were seeded at 10,000 cells per 50 uL per well with RPMI/phenol red free media contains 10% FBS in a 384-well black wall clear bottom tissue culture plate (Matrix Technologies LLC) 125 nL of certain concentration of compound was then added to each well using ECHO liquid handling systems. The cells were incubated for 20 hours in 37° C. incubator with 5% CO2.
The compound treatments were stopped by adding Trichloroacetic Acid (Sigma-Aldrich) to a final concentration at 0.2%. The cell plate was further incubated at 50° C. for 30 minute. The equal volume supernatant (20 uL) and 0.2% (w/v) Ehrlich reagent (4-dimethylaminobenzaldehyde, Sigma-Aldrich) in glacial acetic acid were mixed in a new clear bottom 384-well plate. This plate was then incubated at room temperature for 30 minute. The absorbance at 490 nm was measured on Envision plate reader.
Compound IC50 values were calculated using the counts of 500 nM of a reference standard treatment as one hundred percent inhibition, and counts of no compound but DMSO treatment as zero percent inhibition.

Human IDO1, sequence (P14902 whole entry): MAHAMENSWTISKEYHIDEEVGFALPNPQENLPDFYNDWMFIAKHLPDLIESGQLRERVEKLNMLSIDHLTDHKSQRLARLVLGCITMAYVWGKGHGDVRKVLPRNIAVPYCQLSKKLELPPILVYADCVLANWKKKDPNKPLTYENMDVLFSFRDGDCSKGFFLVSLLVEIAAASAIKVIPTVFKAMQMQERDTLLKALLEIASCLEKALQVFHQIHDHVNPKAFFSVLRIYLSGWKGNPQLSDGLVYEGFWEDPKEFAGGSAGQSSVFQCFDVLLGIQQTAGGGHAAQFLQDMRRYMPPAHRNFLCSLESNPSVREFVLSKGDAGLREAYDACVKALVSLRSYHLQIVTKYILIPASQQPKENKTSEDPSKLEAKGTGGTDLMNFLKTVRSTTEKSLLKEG

SMILES	IC50 [µM]
Cc1cc(NC(=O)Nc2cc([C@@H]3C[C@@H]3C(=O)O)ccc2N(CC(C)C)CC(C)C)on1 [Example 31, (1S,2R)-2-(4-(diisobutylamino)-3-(3-(3-methylisoxazol-5-yl)ureido)phenyl)cyclopropanecarboxylic acid]	0.004
Cc1ccc(NC(=O)Nc2cc([C@@H]3C[C@@H]3C(=O)O)ccc2N(CCCC(F)(F)F)C2CCCCC2)cc1 [Example 76, (1S,2R)-2-(4-(cyclohexyl(4,4,4-trifluorobutyl)amino)-3-(3-(p-tolyl)ureido)phenyl)cyclopropanecarboxylic acid]	0.338
Cc1ccc(CC(=O)Nc2cc([C@H]3C[C@H]3C(=O)O)ccc2N(CC(C)C)CC(C)C)cn1 [Example 118, (1R,2S)-2-(4-(diisobutylamino)-3-(2-(6-methylpyridin-3-yl)acetamido)phenyl)cyclopropanecarboxylic acid]	0.126
CC(C)CN(CC(C)C)c1ccc([C@@H]2C[C@@H]2C(=O)O)cc1NC(=O)Nc1ccc(C2CC2)cc1 [Example 20, (1S,2R)-2-(3-(3-(4-cyclopropylphenyl)ureido)-4-(diisobutylamino)phenyl) cyclopropanecarboxylic acid]	0.061
Cc1ncc(NC(=O)Nc2cc([C@@H]3C[C@@H]3C(=O)O)ccc2N(CC(C)C)CC(C)C)cn1 [Example 77, (1S,2R)-2-(4-(diisobutylamino)-3-(3-(2-methylpyrimidin-5-yl)ureido)phenyl)cyclopropanecarboxylic acid]	0.064
Cc1cccc(NC(=O)Nc2cc([C@@H]3C[C@@H]3C(=O)O)ccc2N(CC(C)C)CC(C)C)c1 [Example 19, (1S,2R)-2-(4-(diisobutylamino)-3-(3-(m-tolyl)ureido)phenyl) cyclopropanecarboxylic acid]	0.442
COCCN(Cc1ccc(Cl)cc1)c1ccc([C@H]2C[C@H]2C(=O)O)cc1NC(=O)Nc1ccc(C)cc1 (single isomer, unassigned) [Example 43]	0.088
CC(C)CN(CC(C)C)c1ccc([C@@H]2C[C@@H]2C(=O)O)cc1NC(=O)Nc1cc(C(F)(F)F)no1 [Example 37, (1S,2R)-2-(4-(diisobutylamino)-3-(3-(3-(trifluoromethyl)isoxazol-5-yl)ureido)phenyl)cyclopropanecarboxylic acid]	0.007
CC(C)CN(CC(C)C)c1ccc([C@H]2C[C@H]2C(=O)O)cc1NC(=O)Nc1ccc(CC#N)cc1 [Example 15, (1R,2S)-2-(3-(3-(4-(cyanomethyl)phenyl)ureido)-4-(diisobutylamino)phenyl) cyclopropanecarboxylic acid]	0.541
CCOC(=O)Nc1ccc(NC(=O)Nc2cc([C@@H]3C[C@@H]3C(=O)O)ccc2N(CC(C)C)CC(C)C)cc1 [Example 71, (1S,2R)-2-(4-(diisobutylamino)-3-(3-(4-((ethoxycarbonyl)amino)phenyl)ureido)phenyl)cyclopropanecarboxylic acid]	0.519
CC(C)CN(CC(C)C)c1ccc([C@H]2C[C@H]2C(=O)O)cc1NC(=O)Nc1cc(C(F)(F)F)no1 [Example 36, (1R,2S)-2-(4-(diisobutylamino)-3-(3-(3-(trifluoromethyl)isoxazol-5-yl)ureido)phenyl)cyclopropanecarboxylic acid]	0.007
O=C(Nc1cncnc1)Nc1cc([C@H]2C[C@H]2C(=O)O)ccc1N(CCC(F)(F)F)C1CCCCC1 [Example 87, (1R,2S)-2-(4-(cyclohexyl(3,3,3-trifluoropropyl)amino)-3-(3-(pyrimidin-5-yl)ureido)phenyl)cyclopropanecarboxylic acid]	0.994
COC(=O)[C@@H]1C[C@@H]1c1ccc(N(CC(C)C)CC(C)C)c([N+](=O)[O-])c1 [Example 1J, (1R,2S)-methyl 2-(4-(diisobutylamino)-3-nitrophenyl) cyclopropanecarboxylate]	0.008
COC(=O)C1CC1c1ccc(N(CC(C)C)CC(C)C)c([N+](=O)[O-])c1 (stereo not drawn) [ent-1J]	0.002
O=C(Nc1cncnc1)Nc1cc([C@H]2C[C@H]2C(=O)O)ccc1N(CCCC(F)(F)F)C1CCCCC1 [Example 75]	0.787
Cc1ccc(NC(=O)Nc2cc([C@H]3C[C@H]3C(=O)O)ccc2N(CC(C)C)CC(C)C)c(Cl)c1 [Example 14, (1R,2S)-2-(3-(3-(2-chloro-4-methylphenyl)ureido)-4-(diisobutylamino)phenyl) cyclopropanecarboxylic acid]	0.086
Cc1cc(NC(=O)Nc2cc([C@H]3C[C@H]3C(=O)O)ccc2N(CC(C)C)C2CCCCC2)on1 [Example 129, (1R,2S)-2-(4-(cyclohexyl(isobutyl)amino)-3-(3-(3-methylisoxazol-5-yl)ureido)phenyl)cyclopropanecarboxylic acid]	0.0005
CC(C)CN(CC(C)C)c1ccc([C@H]2C[C@H]2C(=O)O)cc1NC(=O)Nc1ccc(C(F)(F)F)cc1 [Example 5, (1R,2S)-2-(4-(diisobutylamino)-3-(3-(4-(trifluoromethyl)phenyl)ureido)phenyl)cyclopropanecarboxylic acid]	0.941
CC(C)CN(CC(C)C)c1ccc([C@H]2C[C@H]2C(=O)O)cc1NC(=O)Cc1ccc(F)cc1 [Example 117, (1R,2S)-2-(4-(diisobutylamino)-3-(2-(4-fluorophenyl)acetamido)phenyl)cyclopropanecarboxylic acid]	0.097
Cc1cc(CC(=O)Nc2cc([C@@H]3C[C@@H]3C(=O)O)ccc2N(CC(C)C)CC(C)C)on1 [Example 63, (1S,2R)-2-(4-(diisobutylamino)-3-(2-(3-methylisoxazol-5-yl)acetamido)phenyl) cyclopropanecarboxylic acid]	0.262
Cc1cc(NC(=O)Nc2cc([C@H]3C[C@H]3C(=O)O)ccc2N(CC(C)C)CC(C)C)on1 [Example 30, (1R,2S)-2-(4-(diisobutylamino)-3-(3-(3-methylisoxazol-5-yl)ureido)phenyl)cyclopropanecarboxylic acid]	0.006
Cc1ccc(NC(=O)Nc2cc([C@H]3C[C@H]3C(=O)O)ccc2N(CCCC(F)(F)F)C2CCCCC2)cc1 [Example 73, (1R,2S)-2-(4-(cyclohexyl(4,4,4-trifluorobutyl)amino)-3-(3-(p-tolyl)ureido)phenyl)cyclopropanecarboxylic acid]	0.527
CC(C)CN(CC(C)C)c1ccc([C@H]2C[C@H]2C(=O)O)cc1NC(=O)Nc1ccccc1Cl [Example 9, (1R,2S)-2-(3-(3-(2-chlorophenyl)ureido)-4-(diisobutylamino)phenyl) cyclopropanecarboxylic acid]	0.097
Cc1ccc(CC(=O)Nc2cc([C@H]3C[C@H]3C(=O)O)ccc2N(CC(C)C)CC(C)C)cc1 [Example 60, (1R,2S)-2-(4-(diisobutylamino)-3-(2-(p-tolyl)acetamido)phenyl)cyclopropanecarboxylic acid]	0.021
CC(C)CN(CC(C)C)c1ccc([C@@H]2C[C@@H]2C(=O)O)cc1NC(=O)Nc1ccc(OCC(F)(F)F)cc1 [Example 72, (1S,2R)-2-(4-(diisobutylamino)-3-(3-(4-(2,2,2-trifluoroethoxy)phenyl)ureido)phenyl)cyclopropanecarboxylic acid]	0.2
CC(C)CN(CC(C)C)c1ccc([C@H]2C[C@H]2C(=O)O)cc1NC(=O)Nc1ccc(Cl)c(Cl)c1 [Example 6, (1R,2S)-2-(3-(3-(3,4-dichlorophenyl)ureido)-4-(diisobutylamino)phenyl) cyclopropanecarboxylic acid]	0.148
Cc1cc(NC(=O)Nc2cc([C@@H]3C[C@@H]3C(=O)O)ccc2N(CC(C)C)CC(C)C)no1 [Example 67, (1S,2R)-2-(4-(diisobutylamino)-3-(3-(5-methylisoxazol-3-yl)ureido)phenyl)cyclopropanecarboxylic acid]	0.023
CC(C)CN(CC(C)C)c1ccc([C@H]2C[C@H]2C(=O)O)cc1NC(=O)Nc1cc(C2CC2)no1 [Example 34, (1R,2S)-2-(3-(3-(3-cyclopropylisoxazol-5-yl)ureido)-4-(diisobutylamino)phenyl)cyclopropanecarboxylic acid]	0.002
